Laboratory results published in patent US20250346593A1, “IMIDAZO(1,2-1)PYRIDINE DERIVATIVES AS RIPK2 INHIBITORS” (Interline Therapeutics, Inc., priority 2022, published 2025).
Like-named read-outs stand apart in the source and are kept apart here.

What was measured:
[1] = system: NF-κB pathway (SEAP) in THP1-Dual cells; experiment: THP-1 Dual cell SEAP assay (L18-MDP stimulated); format: cell-based; conditions: Homo sapiens, THP1-Dual, read-out: NFkB THP1 IC50
[2] = target: GST-RIPK2 fusion protein (human RIPK2 amino acids 1-310) (Homo sapiens (Human), UniProt O43353); experiment: RIPK2 binding competition assay (TR-FRET, Tracer 199)
[3] = read-out: RIPK2 IC50, RIPK2 binding competition assay

Sequence of GST-RIPK2 fusion protein (human RIPK2 amino acids 1-310) (O43353 1-310): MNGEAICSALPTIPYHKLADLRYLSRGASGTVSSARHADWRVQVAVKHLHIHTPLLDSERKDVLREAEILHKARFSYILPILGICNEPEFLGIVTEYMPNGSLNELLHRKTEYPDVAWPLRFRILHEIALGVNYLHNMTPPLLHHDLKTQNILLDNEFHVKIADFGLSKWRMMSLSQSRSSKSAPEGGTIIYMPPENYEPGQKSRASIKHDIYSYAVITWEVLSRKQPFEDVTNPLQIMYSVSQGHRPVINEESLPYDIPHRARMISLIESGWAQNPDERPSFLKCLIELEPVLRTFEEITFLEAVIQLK

SMILES | IC50 [1] [µM] | IC50 [2, 3] [µM] | IC50 [2] [µM]
COc1cc2ncc(-c3cc(F)nc(NCC(F)(F)CO)c3)n2cc1S(=O)(=O)C(C)(C)C [Example 228, 2,2-difluoro-3-({6-fluoro-4-[7-methoxy-6-(2-methylpropane-2-sulfonyl)imidazo[1,2-a]pyridin-3-yl]pyridin-2-yl}amino)propan-1-ol] | < 0.05 | < 0.001 | 
COc1cc2ncc(-c3cc(F)nc(NC[C@@H](F)CO)c3)n2cc1S(=O)(=O)C(C)(C)C [Example 229, (2R)-2-fluoro-3-({6-fluoro-4-[7-methoxy-6-(2-methylpropane-2-sulfonyl)imidazo[1,2-a]pyridin-3-yl]pyridin-2-yl}amino)propan-1-ol] | < 0.05 | < 0.001 | 
COc1cc2ncc(-c3cc(F)nc(N[C@H](C)CCO)c3)n2cc1S(=O)(=O)C(C)(C)C [Example 230, (3R)-3-({6-fluoro-4-[7-methoxy-6-(2-methylpropane-2-sulfonyl)imidazo[1,2-a]pyridin-3-yl]pyridin-2-yl}amino)butan-1-ol] | 0.25 to 1 |  | 0.0025 to 0.02
COc1cc2ncc(-c3cc(F)nc(NC[C@H](F)CO)c3)n2cc1S(=O)(=O)C(C)(C)C [Example 231, (2S)-2-fluoro-3-({6-fluoro-4-[7-methoxy-6-(2-methylpropane-2-sulfonyl)imidazo[1,2-a]pyridin-3-yl]pyridin-2-yl}amino)propan-1-ol] | < 0.05 | < 0.001 | 
COc1cc2ncc(-c3cc(NCCCO)nc(C(F)(F)F)c3)n2cc1S(=O)(=O)C(C)(C)C [Example 232, 3-({4-[7-methoxy-6-(2-methylpropane-2-sulfonyl)imidazo[1,2-a]pyridin-3-yl]-6-(trifluoromethyl)pyridin-2-yl}amino)propan-1-ol] | 0.25 to 1 |  | 0.0025 to 0.02
COc1cc2ncc(-c3cc(F)nc(NCCOC(F)F)c3)n2cc1S(=O)(=O)C(C)(C)C [Example 233, 4-(6-(tert-butylsulfonyl)-7-methoxyimidazo[1,2-a]pyridin-3-yl)-N-(2-(difluoromethoxy)ethyl)-6-fluoropyridin-2-amine] | < 0.05 | < 0.001 | 
COc1ccn2c(-c3cc(F)nc(NCCCO)c3)cnc2c1 [Example 234, 3-[(6-fluoro-4-{7-methoxyimidazo[1,2-a]pyridin-3-yl}pyridin-2-yl)amino]propan-1-ol] | 0.05 to 0.25 |  | 0.0025 to 0.02
COc1cc2ncc(-c3cc(F)nc(NCCSC)c3)n2cc1S(=O)(=O)C(C)(C)C [Example 235, 4-(6-(tert-butylsulfonyl)-7-methoxyimidazo[1,2-a]pyridin-3-yl)-6-fluoro-N-(2-(methylthio)ethyl) pyridin-2-amine] | < 0.05 |  | 0.001 to 0.0025
COc1cc2ncc(-c3cc(F)nc(N[C@@H](C)CCO)c3)n2cc1S(=O)(=O)C(C)(C)C [Example 236, (3S)-3-({6-fluoro-4-[7-methoxy-6-(2-methylpropane-2-sulfonyl)imidazo[1,2-a]pyridin-3-yl]pyridin-2-yl}amino)butan-1-ol] | < 0.05 | < 0.001 | 
COc1cc2ncc(-c3cc(F)nc(NC(C)(C)CO)c3)n2cc1S(=O)(=O)C(C)(C)C [Example 237, 2-({6-fluoro-4-[7-methoxy-6-(2-methylpropane-2-sulfonyl)imidazo[1,2-a]pyridin-3-yl]pyridin-2-yl}amino)-2-methylpropan-1-ol] | 0.05 to 0.25 |  | 0.0025 to 0.02
CCOc1cc2ncc(-c3cc(F)nc(NCCCO)c3)n2cc1C1(F)CCN(C)CC1 [Example 242, 3-({4-[7-ethoxy-6-(4-fluoro-1-methylpiperidin-4-yl)imidazo[1,2-a]pyridin-3-yl]-6-fluoropyridin-2-yl}amino)propan-1-ol] | < 0.05 | < 0.001 | 
CCOc1cc2ncc(-c3cc(F)nc(NCCCO)c3)n2cc1S(=O)(=O)C(C)C [Example 243, 3-({4-[7-ethoxy-6-(propane-2-sulfonyl)imidazo[1,2-a]pyridin-3-yl]-6-fluoropyridin-2-yl}amino)propan-1-ol] | < 0.05 | < 0.001 | 
COc1cc2ncc(-c3ccnc(NCCCO)c3)n2cc1S(=O)(=O)C(C)(C)C [Example 247, 3-({4-[7-methoxy-6-(2-methylpropane-2-sulfonyl)imidazo[1,2-a]pyridin-3-yl]pyridin-2-yl}amino)propan-1-ol] | < 0.05 |  | 0.0025 to 0.02
COc1cc2ncc(-c3cc(F)nc(NCCCO)c3)n2cc1C(=O)N(C)C [Example 248, 3-{2-fluoro-6-[(3-hydroxypropyl)amino]pyridin-4-yl}-7-methoxy-N,N-dimethylimidazo[1,2-a]pyridine-6-carboxamide] | 0.05 to 0.25 |  | 0.0025 to 0.02
COc1cc2ncc(-c3cc(F)nc(NCC(C)(C)O)c3)n2cc1C(=O)N(C)C [Example 249, 3-{2-fluoro-6-[(2-hydroxy-2-methylpropyl)amino]pyridin-4-yl}-7-methoxy-N,N-dimethylimidazo[1,2-a]pyridine-6-carboxamide] | 0.25 to 1 | > 0.02 | 
COc1cc2ncc(-c3cc(F)nc(NCCCO)c3)n2cc1CO [Example 250, 3-({6-fluoro-4-[6-(hydroxymethyl)-7-methoxyimidazo[1,2-a]pyridin-3-yl]pyridin-2-yl}amino)propan-1-ol] | 0.05 to 0.25 |  | 0.0025 to 0.02

SMILES | IC50 [1] [µM] | IC50 [2, 3] [µM] | IC50 [2] [µM]
CNC(=O)c1cn2c(-c3cc(F)nc(NCCCO)c3)cnc2cc1OC [Example 251, 3-{2-fluoro-6-[(3-hydroxypropyl)amino]pyridin-4-yl}-7-methoxy-N-methylimidazo[1,2-a]pyridine-6-carboxamide] | < 0.05 |  | 0.001 to 0.0025
COc1cc2ncc(-c3cc(NCCCO)cc(F)n3)n2cc1S(=O)(=O)C(C)(C)C [Example 252, 3-((2-(6-(tert-butylsulfonyl)-7-methoxyimidazo[1,2-a]pyridin-3-yl)-6-fluoropyridin-4-yl)amino)propan-1-ol] | 0.25 to 1 | > 0.02 | 
CCCS(=O)(=O)Nc1cc(-c2cnc3cc(OC)c(S(=O)(=O)C(C)(C)C)cn23)cnc1N [Example 253, N-(2-amino-5-(6-(tert-butylsulfonyl)-7-methoxyimidazo[1,2-a]pyridin-3-yl)pyridin-3-yl)propane-1-sulfonamide] | > 1 | > 0.02 | 
CCCS(=O)(=O)Nc1cncc(-c2cnc3cc(OC)c(S(=O)(=O)C(C)(C)C)cn23)c1 [Example 254] | > 1 | > 0.02 | 
CCCS(=O)(=O)Nc1c(F)ccc(-c2cnc3cc(OC)c(S(=O)(=O)C(C)(C)C)cn23)c1F [Example 255, N-(3-(6-(tert-butylsulfonyl)-7-methoxyimidazo[1,2-a]pyridin-3-yl)-2,6-difluorophenyl)propane-1-sulfonamide] | > 1 |  | > 0.02
CCCS(=O)(=O)N(C)c1cccc(-c2cnc3cc(OC)c(S(=O)(=O)C(C)(C)C)cn23)c1 [Example 256, N-(3-(6-(tert-butylsulfonyl)-7-methoxyimidazo[1,2-a]pyridin-3-yl)phenyl)-N-methylpropane-1-sulfonamide] | > 1 | > 0.02 | 
CCCS(=O)(=O)Nc1c(OC)ccc(-c2cnc3cc(OC)c(S(=O)(=O)C(C)(C)C)cn23)c1F [Example 257, N-(3-(6-(tert-butylsulfonyl)-7-methoxyimidazo[1,2-a]pyridin-3-yl)-2-fluoro-6-methoxyphenyl)propane-1-sulfonamide] | > 1 | > 0.02 | 
CCCS(=O)(=O)Nc1cccc(-c2cnc3cc(OC)c(S(=O)(=O)C(C)(C)C)cn23)c1F [Example 258, N-(3-(6-(tert-butylsulfonyl)-7-methoxyimidazo[1,2-a]pyridin-3-yl)-2-fluorophenyl)propane-1-sulfonamide] | > 1 | > 0.02 | 
CCCS(=O)(=O)Nc1cc(-c2cnc3cc(OC)c(S(=O)(=O)C(C)(C)C)cn23)cc(C#N)c1OC [Example 259, N-(5-(6-(tert-butylsulfonyl)-7-methoxyimidazo[1,2-a]pyridin-3-yl)-3-cyano-2-methoxyphenyl)propane-1-sulfonamide] | 0.25 to 1 |  | 0.0025 to 0.02
COc1cc2ncc(-c3cc(C#N)c(OC)c(NS(C)(=O)=O)c3)n2cc1S(=O)(=O)C(C)(C)C [Example 260, N-(5-(6-(tert-butylsulfonyl)-7-methoxyimidazo[1,2-a]pyridin-3-yl)-3-cyano-2-methoxyphenyl)methane-sulfonamide] | > 1 |  | 0.0025 to 0.02
COc1cc2ncc(-c3cccc(NS(C)(=O)=O)c3)n2cc1S(=O)(=O)C(C)(C)C [Example 261, N-(3-(6-(tert-butylsulfonyl)-7-methoxyimidazo[1,2-a]pyridin-3-yl)phenyl)methanesulfon-amide] | > 1 |  | 0.0025 to 0.02
CCCS(=O)(=O)Nc1cc(-c2cnc3cc(OC)c(S(=O)(=O)C(C)(C)C)cn23)cc(F)c1C [Example 262, N-(5-(6-(tert-butylsulfonyl)-7-methoxyimidazo[1,2-a]pyridin-3-yl)-3-fluoro-2-methylphenyl)propane-1-sulfonamide] | 0.25 to 1 |  | 0.0025 to 0.02
CCCS(=O)(=O)Nc1c(F)c(-c2cnc3cc(OC)c(S(=O)(=O)C(C)(C)C)cn23)cc(F)c1OC [Example 263, N-(3-(6-(tert-butylsulfonyl)-7-methoxyimidazo[1,2-a]pyridin-3-yl)-2,5-difluoro-6-methoxyphenyl)propane-1-sulfonamide] | 0.25 to 1 |  | 0.0025 to 0.02
COc1cc(-c2cnc3cc(OC)c(S(=O)(=O)C(C)(C)C)cn23)cc(NS(C)(=O)=O)n1 [Example 264, N-(4-(6-(tert-butylsulfonyl)-7-methoxyimidazo[1,2-a]pyridin-3-yl)-6-methoxypyridin-2-yl)methanesulfonamide] | 0.25 to 1 |  | 0.0025 to 0.02
CCCS(=O)(=O)Nc1cc(-c2cnc3cc(OC)c(S(=O)(=O)C(C)(C)C)cn23)cnc1OC [Example 265, N-(5-(6-(tert-butylsulfonyl)-7-methoxyimidazo[1,2-a]pyridin-3-yl)-2-methoxypyridin-3-yl)propane-1-sulfonamide] | 0.05 to 0.25 |  | 0.0025 to 0.02
